Results: ChEMBL document CHEMBL4184134, “Daryamide Analogues from a Marine-Derived Streptomyces species” (J Nat Prod, 2017)
The source made the active and inactive calls.

Columns and labels:
Bacillus subtilis = assay: Antimicrobial activity against Bacillus subtilis at incubated for 24 hrs by paper disk method; format: functional, organism-based
NCI-H2122 = assay: Cytotoxicity against human NCI-H2122 cells assessed as reduction in cell viability at 1 nM to 50 uM incubated for 96 hrs by Cell-titer Glo reagent based assay; format: functional
A549 = assay: Cytotoxicity against human A549 cells assessed as reduction in cell viability at 1 nM to 50 uM incubated for 96 hrs by Cell-titer Glo reagent based assay; format: functional
Pseudomonas aeruginosa = assay: Antimicrobial activity against Pseudomonas aeruginosa incubated for 24 hrs by paper disk method; format: functional, organism-based
Homo sapiens = organism: Homo sapiens; assay: Cytotoxicity against human HCC366 cells assessed as reduction in cell viability at 1 nM to 50 uM incubated for 96 hrs by Cell-titer Glo reagent based assay; format: functional
HCC44 = assay: Cytotoxicity against human HCC44 cells assessed as reduction in cell viability at 1 nM to 50 uM incubated for 96 hrs by Cell-titer Glo reagent based assay; format: functional

Measured: Activity

CC(C)C/C=C/C=C/C(=O)NC1=C[C@@](O)(CCC(N)=O)[C@H]2O[C@H]2[C@@H]1O
inactive: all assays above

CC(C)/C=C/C=C/C(=O)NC1=C[C@@](O)(CCC(N)=O)[C@H]2O[C@H]2[C@@H]1O
inactive: all assays above

CCC/C=C/C=C/C(=O)NC1=C[C@@](O)(CCC(N)=O)[C@H]2O[C@H]2[C@@H]1O
inactive: all assays above

CC(C)C/C=C/C=C/C(=O)N(CCO)c1cc(CCC(=O)O)c(O)cc1O
inactive: all assays above

CC(C)C/C=C/C=C/C(=O)N[C@H]1CCCNC1=O
inactive: all assays above
